This is an account of results in ChEMBL document CHEMBL3886610, “Perfluorinated 5,6-dihydro-4H-1,3-oxazin-2-amine compounds as beta-secretase inhibitors and methods of use” (2016).

The target in experiment [1] is T1, Beta-secretase 1 (Homo sapiens, UniProt P56817). As to the kind of experiment: In Vitro Enzymatic BACE FRET Assay: The assay buffer used in this screen is 0.05 M acetate, pH 4.2, 10% DMSO final, 100 uM genapol (which is a nonionic detergent, below its Critical Micelle Concentration). The Beta Secretase enzyme (0.2 nM) is pre-incubated for one hour with inhibitors, typically in about 1 uL of DMSO according to a serial dilution, are added thereto. This assay is effectively started by the addition of FRET substrate (50 nM) and the combination is incubated for one hour. The FRET assay is terminated with by addition of Tris buffer, which raises the pH to neutrality, and the fluorescence is determined. The FRET substrate is a peptide with commercially available fluorophore and quencher, on opposite sides of the BACE cleavage site. Proteolytic cleavage of the FRET substrate releases quenching of fluorescence (excitation 488 nm and […]).
T1 sequence (P56817 whole entry): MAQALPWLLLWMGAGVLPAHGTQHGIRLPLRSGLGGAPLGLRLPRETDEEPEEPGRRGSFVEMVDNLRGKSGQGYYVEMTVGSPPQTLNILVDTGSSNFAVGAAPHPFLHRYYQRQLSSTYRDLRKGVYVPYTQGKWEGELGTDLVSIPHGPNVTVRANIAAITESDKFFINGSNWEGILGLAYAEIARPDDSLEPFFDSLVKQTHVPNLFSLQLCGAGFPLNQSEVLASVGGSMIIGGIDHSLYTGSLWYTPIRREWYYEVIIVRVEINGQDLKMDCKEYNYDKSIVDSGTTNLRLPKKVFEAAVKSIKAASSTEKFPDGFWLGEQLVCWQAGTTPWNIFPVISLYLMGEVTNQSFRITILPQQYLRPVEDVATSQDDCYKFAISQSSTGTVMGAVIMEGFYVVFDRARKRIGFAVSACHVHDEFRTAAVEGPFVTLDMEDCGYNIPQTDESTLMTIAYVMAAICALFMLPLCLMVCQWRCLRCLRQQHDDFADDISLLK

Experiment [2] has as its target Cathepsin D (Homo sapiens, UniProt P07339). Put plainly: In Vitro Enzymatic Cathepsin D FRET Assay: Recombinant Cat D was expressed in CHO cells. The assay buffer for CathepsinD is 0.05 M citrate pH 3.5, 10% DMSO final, 5 mM CHAPS. The Cat D enzyme (9 nM) is pre-incubated for one hour with inhibitors, typically in about 1 uL of DMSO according to a serial dilution, is added thereto. The assays are effectively started by the addition of different FRET substrates (20 nM for Cat D) and the combination is incubated for one hour. The FRET assay is terminated with by addition of Tris buffer, which raises the pH to neutrality, and the fluorescence is determined. The FRET substrate is a peptide with commercially available fluorophore and quencher, on opposite sides of the BACE cleavage site. […] Proteolytic cleavage of the FRET substrate releases quenching of fluorescence (Cat D excitation 500 nm and emission 580 nm). It counts as cell-based.

The target of experiment [3] is T1, Beta-secretase 1. Put plainly: In Vitro BACE Cell-Based Assay: The cell-based assay measures inhibition or reduction of Aβ40 in conditioned medium of test compound treated cells expressing amyloid precursor protein. Cells stably expressing Amyloid Precursor Protein (APP) were plated at a density of 40K cells/well in 96 well plates (Costar). The cells were cultivated for 24 hours at 37° C. and 5% CO2 in DMEM supplemented with 10% FBS. The test compounds were then added to cells in 10-point dose response concentrations with the starting concentration being either 100 uM or 10 uM. The compounds were diluted from stock solutions in DMSO and the final DMSO concentration of the test compounds on cells was 0.1%. After 24 h of incubation with the test compounds the supernatant conditioned media was collected and the Aβ 40 levels were determined using a sandwich ELISA. Background: ELISA stands for enzyme-linked immunosorbent assay.

Where only a bound is given, the exact number is not on record here.

Sequence of Cathepsin D (P07339 65-162 limits assumed): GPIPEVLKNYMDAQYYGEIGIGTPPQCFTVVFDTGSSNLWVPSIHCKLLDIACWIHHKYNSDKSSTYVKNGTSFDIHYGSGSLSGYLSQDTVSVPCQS
Sequence of Cathepsin D (P07339 169-412 limits assumed): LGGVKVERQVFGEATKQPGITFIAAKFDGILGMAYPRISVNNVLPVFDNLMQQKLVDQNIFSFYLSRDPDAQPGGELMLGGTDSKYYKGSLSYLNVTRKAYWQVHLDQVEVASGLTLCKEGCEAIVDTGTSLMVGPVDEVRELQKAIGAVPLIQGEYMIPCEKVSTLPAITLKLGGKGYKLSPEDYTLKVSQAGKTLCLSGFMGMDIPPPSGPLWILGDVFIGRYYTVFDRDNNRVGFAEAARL

On to `Cc1cc(OCC2CC2)cnc1C(=O)Nc1ccc(F)c([C@]2(CF)C[C@@H](C(F)(F)F)OC(N)=N2)c1`, for which the IC50 – broadly, the concentration that gives 50% inhibition – in experiment [1] was 0.12 µM; in experiment [2] (cho), over 400 µM; in experiment [3] it was 0.487 µM.
In the case of `C#CCOc1ccc(C(=O)Nc2cc(F)c(F)c([C@]3(C)C[C@@H](C(F)(F)F)OC(N)=N3)c2)nc1`, the half-inhibitory concentration (IC50) was determined as 0.01 µM in experiment [1], 1190 µM in experiment [2] and 0.012 µM in experiment [3].
In experiment [3], `COC(=O)c1ccnc(Oc2ccc(F)c([C@]3(CF)C[C@@H](C(F)(F)F)OC(N)=N3)c2)c1` gave a half-inhibitory concentration (IC50) of 3.56 µM.
